Molecules are shown by their SMILES. Converted amounts (≈) assume the structure as drawn.

What is called MIC is the lowest concentration that inhibits growth of the organism. As usually defined, the MIC50 is an inhibitory concentration at the 50% level, which refers to growth in some studies and to a panel of isolates in others. For orientation: MIC90 means the lowest concentration that inhibits either 90% of growth or 90% of the strains tested, depending on the study.

Common to all, as to format: functional
Test [1] relates to Pseudomonas aeruginosa. Put plainly: Antibacterial activity against Pseudomonas aeruginosa GN315 by agar dilution method.
Test [2] concerns Pseudomonas aeruginosa. In words: Antibacterial activity against Pseudomonas aeruginosa N101 by agar dilution method. On the technique in general: In agar dilution the substance is mixed into plates at graded concentrations.
The test system of test [3] is Staphylococcus aureus. Put plainly: Antibacterial activity against Staphylococcus aureus 209P JC1 by agar dilution method.
Test [4] concerns Staphylococcus aureus. Put plainly: Antibacterial activity against methicillin-resistant Staphylococcus aureus MSC03571 by agar dilution method.
For test [5], the system named is Staphylococcus aureus. Put plainly: Antibacterial activity against methicillin-resistant Staphylococcus aureus by agar dilution method.
In test [6] the test system is Pseudomonas aeruginosa. In words: Antibacterial activity against Pseudomonas aeruginosa PAO1 by agar dilution method.
In test [7] the test system is Staphylococcus aureus. Put plainly: Antibacterial activity against methicillin-resistant Staphylococcus aureus MF490 by agar dilution method.
In test [8] the test system is Escherichia coli. In words: Antibacterial activity against Escherichia coli NIH JC2 by agar dilution method.
The mark [9] stands for this setting: Pseudomonas aeruginosa, read-out: MIC.
Where [10] appears, read: Staphylococcus aureus, 209P JC1, read-out: MIC.
[11] abbreviates: Staphylococcus aureus, read-out: MIC50.
Setting [12] is: Staphylococcus aureus, read-out: MIC90.
Setting [13] is: Pseudomonas aeruginosa, PAO1, read-out: MIC.
Where [14] appears, read: Escherichia coli, NIH JC2, read-out: MIC.
Where [15] appears, read: Staphylococcus aureus, read-out: MIC.

Turning to `NCC[C@H](O)C(=O)N[C@@H]1C[C@H](N)[C@@H](O[C@H]2O[C@H](CN)CC[C@H]2N)C(O)[C@H]1O[C@H]1O[C@H](CO)[C@@H](O)[C@H](N)[C@H]1O` (single isomer, unassigned; form 1) [ARBEKACIN], the minimal inhibitory concentration (MIC) in test [1] (setting [9]) is 8 µg/mL (≈ 14.5 µM); in test [2] (setting [9]), 0.25 µg/mL (≈ 0.452 µM); in test [3] (setting [10]), 0.06 µg/mL (≈ 0.109 µM); in test [4], 2 µg/mL (≈ 3.62 µM); in test [6] (setting [13]), 2 µg/mL (≈ 3.62 µM); in test [7], 2 µg/mL (≈ 3.62 µM). In addition, in test [8] (setting [14]), the minimal inhibitory concentration (MIC) was 1 µg/mL (≈ 1.81 µM). The MIC50 in test [5] (setting [11]) is 0.5 µg/mL (≈ 0.905 µM). Further, in test [5] (setting [12]), the MIC90 worked out at 1 µg/mL (≈ 1.81 µM).
With `CN[C@@H]1[C@@H](O)[C@@H](O[C@@H]2[C@H](O)[C@H](O[C@H]3O[C@H](CN)CC[C@H]3N)[C@@H](N)C[C@H]2NC(=O)[C@@H](O)CCN)O[C@H](CO)[C@H]1O`, the MIC in test [1] (setting [9]) worked out at 32 µg/mL (≈ 56.5 µM); in test [3] (setting [10]), 0.13 µg/mL (≈ 0.229 µM); in test [4] (setting [15]) it was 16 µg/mL (≈ 28.2 µM); in test [6] (setting [13]), 2 µg/mL (≈ 3.53 µM); in test [7] (setting [15]), 4 µg/mL (≈ 7.06 µM); in test [8] (setting [14]), 2 µg/mL (≈ 3.53 µM).
Consider `NCC[C@H](O)C(=O)N[C@@H]1C[C@H](N)[C@@H](O[C@H]2O[C@H](CN)CC[C@H]2N)[C@@H](N)[C@H]1O[C@H]1O[C@H](CO)[C@@H](O)[C@H](N)[C@H]1O`, for which the MIC in test [1] (setting [9]) was 16 µg/mL (≈ 29 µM); in test [2] (setting [9]) it was 0.5 µg/mL (≈ 0.906 µM); in test [3] (setting [10]), 0.13 µg/mL (≈ 0.236 µM); in test [4] (setting [15]), 4 µg/mL (≈ 7.25 µM); in test [6] (setting [13]), 2 µg/mL (≈ 3.63 µM); in test [7] (setting [15]), 2 µg/mL (≈ 3.63 µM). The minimum inhibitory concentration (MIC) in test [8] (setting [14]) amounted to 2 µg/mL (≈ 3.63 µM). The MIC50 in test [5] (setting [11]) stood at 0.5 µg/mL (≈ 0.906 µM). In test [5] (setting [12]), the MIC90 turned out to be 0.5 µg/mL (≈ 0.906 µM).
Take `NCCN[C@H]1[C@@H](O[C@H]2O[C@H](CO)[C@@H](O)[C@H](N)[C@H]2O)[C@H](NC(=O)[C@@H](O)CCN)C[C@H](N)[C@H]1O[C@H]1O[C@H](CN)CC[C@H]1N`: the MIC is 64 µg/mL (≈ 108 µM) in test [1] (setting [9]); 0.13 µg/mL (≈ 0.219 µM) in test [3] (setting [10]); 4 µg/mL (≈ 6.73 µM) in test [4] (setting [15]); 2 µg/mL (≈ 3.36 µM) in test [6] (setting [13]); 2 µg/mL (≈ 3.36 µM) in test [7] (setting [15]); 4 µg/mL (≈ 6.73 µM) in test [8] (setting [14]).
`NCC[C@H](O)C(=O)N[C@@H]1C[C@H](N)[C@@H](O[C@H]2O[C@H](CN)CC[C@H]2N)C(O)[C@H]1O[C@H]1O[C@H](CO)[C@@H](O)[C@H](N)[C@H]1O` (single isomer, unassigned; form 2) [ARBEKACIN]: the MIC in test [1] is 16 µg/mL (≈ 29 µM); in test [2], 0.25 µg/mL (≈ 0.452 µM); in test [3], 0.06 µg/mL (≈ 0.109 µM); in test [4] it was 16 µg/mL (≈ 29 µM); in test [6], 2 µg/mL (≈ 3.62 µM); in test [7], 64 µg/mL (≈ 116 µM). The same compound gave a minimal inhibitory concentration (MIC) in test [8] of 1 µg/mL (≈ 1.81 µM). This compound showed an MIC50 in test [5] of 1 µg/mL (≈ 1.81 µM). This compound returned an MIC90 in test [5] of 2 µg/mL (≈ 3.62 µM).
For `NCC[C@H](O)C(=O)N[C@@H]1C[C@H](N)[C@@H](O[C@H]2O[C@H](CN)CC[C@H]2N)[C@@H](Cl)[C@H]1O[C@H]1O[C@H](CO)[C@@H](O)[C@H](N)[C@H]1O`, the MIC was determined as 50 µg/mL (≈ 87.6 µM) in test [1] (setting [9]); 0.5 µg/mL (≈ 0.876 µM) in test [2] (setting [9]); 0.1 µg/mL (≈ 0.175 µM) in test [3] (setting [10]); 6.25 µg/mL (≈ 10.9 µM) in test [4] (setting [15]); 2 µg/mL (≈ 3.5 µM) in test [6] (setting [13]); 3.13 µg/mL (≈ 5.48 µM) in test [7] (setting [15]). Besides, the MIC in test [8] (setting [14]) worked out at 1.56 µg/mL (≈ 2.73 µM).
For the compound `CN[C@H]1[C@@H](O[C@H]2O[C@H](CO)[C@@H](O)[C@H](N)[C@H]2O)[C@H](NC(=O)[C@@H](O)CCN)C[C@H](N)[C@H]1O[C@H]1O[C@H](CN)CC[C@H]1N`, the MIC in test [1] (setting [9]) is 128 µg/mL (≈ 226 µM); in test [3] (setting [10]), 0.25 µg/mL (≈ 0.442 µM); in test [4] (setting [15]), 16 µg/mL (≈ 28.3 µM); in test [6] (setting [13]), 4 µg/mL (≈ 7.07 µM); in test [7] (setting [15]), 4 µg/mL (≈ 7.07 µM); in test [8] (setting [14]), 2 µg/mL (≈ 3.54 µM).
Consider `CN(C)[C@H]1[C@@H](O[C@H]2O[C@H](CO)[C@@H](O)[C@H](N)[C@H]2O)[C@H](NC(=O)[C@@H](O)CCN)C[C@H](N)[C@H]1O[C@H]1O[C@H](CN)CC[C@H]1N`, for which the MIC in test [1] (setting [9]) is more than 32 µg/mL; in test [3] (setting [10]), 1 µg/mL (≈ 1.73 µM); in test [4] (setting [15]), more than 64 µg/mL; in test [6] (setting [13]), 32 µg/mL (≈ 55.2 µM); in test [7] (setting [15]), 32 µg/mL (≈ 55.2 µM); in test [8] (setting [14]), 16 µg/mL (≈ 27.6 µM).
In the case of `NCC[C@H](O)C(=O)N[C@@H]1C[C@H](N)[C@@H](O[C@H]2O[C@H](CN)CC[C@H]2N)[C@@H](NCc2ccccc2)[C@H]1O[C@H]1O[C@H](CO)[C@@H](O)[C@H](N)[C@H]1O`, the MIC in test [1] (setting [9]) came out at 128 µg/mL (≈ 199 µM); in test [2] (setting [9]), 1 µg/mL (≈ 1.56 µM); in test [3] (setting [10]), 0.13 µg/mL (≈ 0.203 µM); in test [4] (setting [15]) it was 32 µg/mL (≈ 49.9 µM); in test [6] (setting [13]), 32 µg/mL (≈ 49.9 µM); in test [7] (setting [15]), 8 µg/mL (≈ 12.5 µM). Further, the MIC in test [8] (setting [14]) came out at 4 µg/mL (≈ 6.23 µM).

The values are drawn from ChEMBL document CHEMBL1148888, “Synthesis and antibacterial activity of 5-deoxy-5-episubstituted arbekacin derivatives” (2007).
